A short description of this data set: Water gain (moisture uptake) of treated cotton swatches, no rinse / with rinse. As to conditions: dried. Format: physicochemical. On the procedure:
Table 2: Water gain (mg) for cotton swatches with different treatments. […] No-rinse samples were treated, dried then incubated to monitor moisture uptake. With rinse samples were treated, rinsed with water, dried then incubated to monitor moisture uptake. Control represents swatches treated with water only.
For table 2, the test method is as follows: For “no rinse”: 1×1 cm cotton swatches (triplicates) are placed into a weigh boat where each is labeled according to treatment type and number. Initial weights are recorded for each sample. 500 uL of polymer solution is applied to each cotton swatch sample then reweighed as wet weight. Samples are allowed to dry overnight at room temperature conditions. Sample weights are recorded in the following morning as “no rinse”. Samples are then placed on a tray in the incubator at 37° C., 3.3% CO2, and approximately 90% humidity (the metal tray at the bottom of the incubator has plenty of distilled water in the pan to ensure constant humidity). Opening and closing the incubator door frequently causes parameters to shift so minimizing this will ensure proper control over parameter. Samples are incubated for 8 hours then reweighed. The weights represent the moisture uptake ability for the treated samples. […] Samples are weighed and placed in the incubator the following morning similar to above described procedure and weights are recorded as “with rinse”.

These results are taken from patent US20110104080A1, “Oral Compositions for Treatment of Dry Mouth” (priority 2009, published 2011).

Structures are written as SMILES.

For `OCC(O)CO` [40% glycerin, glycerin], the Water gain is 393.3 mg (No Rinse, incubated 8 hours at 37° C., approximately 90% humidity) and 126.9 mg (With Rinse, rinsed with water, then incubated).
